Square brackets hold non-standard residues; d marks the D form. Peptide text beside a SMILES is read from it. dTrp(2-Me) = Cc1[nH]c2ccccc2c1C[C@@H](N)C(=O)O
Legend:
[1] = system: human subcutaneous adipocytes; experiment: Transport of green fluorescent labeled fatty acids into primary cultures of human subcutaneous adipocytes (fluorescence microscopy); format: cell-based; conditions: green fluorescent probe, primary culture
Method: In vitro validation of AdipomiRs targeted delivery of functional miRNAs: The ability of the AdipomiRs to target and deliver ss-miRNA analogs to adipocytes was evaluated in a model of primary cultures of human subcutaneous adipocytes. The first experimental step was to confirm that fatty acids are efficiently transported into human mature adipocytes, using the inventor's in vitro protocol of primary cultures of human subcutaneous adipocytes. To test this, fatty acids such as palmitic and […] acids were labeled with a green fluorescent probe and incubated with cultured adipocytes.

[2] = system: MKR insulin-resistant mice; conditions: cited from earlier work
[3] = system: human subcutaneous adipocytes; experiment: Transport of green fluorescent Hexarelin into primary cultures of human subcutaneous adipocytes (fluorescence microscopy); format: cell-based; conditions: green fluorescent probe, primary culture
Source text: In vitro validation of HexamiRs targeted delivery of functional miRNAs: The ability of the HexamiRs to target and deliver ss-miRNA analogs to adipocytes will evaluated in a model of primary cultures of human subcutaneous adipocytes. The first experimental step was to confirm that Hexarelin is efficiently transported into human mature adipocytes, using an in vitro protocol of primary cultures of human subcutaneous adipocytes. To test this, hexarelin labeled with a green fluorescent probe was incubated with cultured adipocytes.

| Compound | transport of labeled fatty acids by human adipocytes [1] | glucose and insulin intolerance [2] | plasma and liver triglycerides [2] | transport of labeled hexarelin into the cytoplasm of human adipocytes [3] |
| --- | --- | --- | --- | --- |
| CCCCCCCCCCCCCCCC(=O)O [palmitic acid, Palmitic Acid] | very efficiently transported |  |  |  |
| Cc1[nH]c2ccccc2c1C[C@@H](NC(=O)[C@@H](N)Cc1cnc[nH]1)C(=O)N[C@@H](C)C(=O)N[C@@H](Cc1c[nH]c2ccccc12)C(=O)N[C@H](Cc1ccccc1)C(=O)N[C@@H](CCCCN)C(N)=O [Hexarelin, His-D-2-Me-Trp-Ala-Trp-D-Phe-Lys-NH2] (H-H[dTrp(2-Me)]AW[dF]K-NH2) |  | significantly improved | decreased | very efficiently transported |

From patent US11690804B2, “Targeted delivery of therapeutic agents to human adipocytes” (AptamiR Therapeutics, Inc., priority 2018, dated 2023)
